# Assay results from PMC3083445, “Mastering the Canonical Loop of Serine Protease Inhibitors: Enhancing Potency by Optimising the Internal Hydrogen Bond Network” (PLoS ONE, 2011).
# Read-outs that look alike come from different tables or passages of the source. Where a SMILES comes first, the peptide text is derived from it. Bridges are numbered along the chain shown (N, C = ends).
# Assays:
# KLK4 [1] = biological target: T1, KLK4 (Homo sapiens, UniProt Q9Y5K2); experiment: biochemical
# Protocol: (§3) Increasing concentrations of inhibitors were incubated with various concentration of protease (final concentrations: KLK4, 1.5 nM; KLK12, 15 nM; KLK14, 2 nM; trypsin, 1 nM; matriptase, 4 nM; thrombin, 25 nM; α-chymotrypsin 25 nM) for 20 min in 200 µl assay buffer (100 mM Tris-HCl, 100 mM NaCl2, 0.005% triton-X, pH 8.0). Assays with thrombin and trypsin included 10 mM CaCl2. Enzyme activity was initiated by addition of substrate in 100 µl assay buffer (final concentration 100 µM; see Table 2). The rate of hydrolysis was measured at 405 nm over 7 min and was linear over this period. […] For SFTI-FCQR Asp14, K i was determined by inhibition at various substrate concentrations using the competitive inhibition model and non-linear regression in Prism 5 (GraphPad Software Inc). The K i for this inhibitor was also determined using the Morrison equation for tight binding inhibitors [43] (FVQR-pNA K M = 679.9±113.1 µM [16]) and non-linear regression in Prism 5. […] The k on and k off were determined from the lag phases and steady state of inhibition as previously described [44] using assay conditions as above and 500 µM substrate.
# KLK4 [2] = biological target: T1, KLK4; experiment: Inhibition of fibrinogen proteolysis by KLK4 (SDS-PAGE); assay type: biochemical; parameters: polyhistidine (C); made in house; host or cells: Sf9 insect cells; conditions: 7 µM fibrinogen, 90 min
# Protocol: (§1) Assays with thrombin and trypsin included 10 mM CaCl2. […] Proteolysis fragments were separated on 10% polyacrylamide gels.
# [3] = Bioavailability / serum levels in mice by LC-MS; assay type: in vivo; conditions: 3 mg/kg
# Protocol: Stability and bioavailability of SFTI-FCQR Asn14 in vivo was assessed in BALB/cFoxn1/Arc mice by oral, intravenous and intraperitoneal delivery (3 mg/kg). Inhibitor was dissolved in PBS at a concentration of 0.6 mg/ml prior to dosing. Serum levels of SFTI-FCQR Asn14 were subsequently measured by Liquid Chromatography-Mass Spectrometry (LC-MS) at Tetra Q laboratories (University of Queensland, Brisbane, Australia). This study was carried out in strict accordance to the recommendations of the Australian Code of Practice for the Care and Use of Animals for Scientific purposes (7th edition 2004) and the protocol was approved by the University of Queensland Animal Ethics Committee (ABS group) which assigned the project approval code TetraQ/479/09/Bluebox. All efforts were made to minimize suffering by experimental animals.
# KLK14 [4] = biological target: T2, KLK14 (Homo sapiens, UniProt Q9P0G3); experiment: Amidolytic inhibition assay of KLK14 with pNA substrate; assay type: biochemical
# T2 construct: polyhistidine (C); made in house; host or cells: Sf9 insect cells
# T2 sequence (Q9P0G3 25-251): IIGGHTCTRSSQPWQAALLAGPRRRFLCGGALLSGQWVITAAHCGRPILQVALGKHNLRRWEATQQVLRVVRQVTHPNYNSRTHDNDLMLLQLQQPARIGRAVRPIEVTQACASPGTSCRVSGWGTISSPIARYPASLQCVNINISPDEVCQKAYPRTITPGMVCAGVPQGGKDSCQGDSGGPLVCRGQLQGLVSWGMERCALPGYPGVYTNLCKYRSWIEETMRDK
# Protocol: as §1
# trypsin = biological target: T3, trypsin (Bos taurus, UniProt P00760); experiment: Inhibition of fibrinogen proteolysis by trypsin (SDS-PAGE); assay type: biochemical, bovine; conditions: up to 10,000 nM inhibitor; 7 µM fibrinogen, 15 min
# T3 construct: Bovine β-trypsin, bovine α-chymotrypsin and human thrombin were obtained from Sigma; purchased Sigma
# T3 sequence (P00760 24-246): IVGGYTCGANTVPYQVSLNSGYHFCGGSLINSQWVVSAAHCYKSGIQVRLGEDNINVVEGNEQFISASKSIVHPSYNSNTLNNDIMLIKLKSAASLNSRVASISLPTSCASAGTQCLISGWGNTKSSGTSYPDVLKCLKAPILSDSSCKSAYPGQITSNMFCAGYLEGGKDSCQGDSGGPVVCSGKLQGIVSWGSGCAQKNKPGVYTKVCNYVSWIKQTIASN
# Protocol: as §1
# Matriptase = biological target: T4, Matriptase (Homo sapiens, UniProt Q9Y5Y6); experiment: Amidolytic inhibition assay of matriptase; assay type: biochemical
# T4 construct: purchased R&D Systems
# T4 sequence (Q9Y5Y6 615-855 limits assumed): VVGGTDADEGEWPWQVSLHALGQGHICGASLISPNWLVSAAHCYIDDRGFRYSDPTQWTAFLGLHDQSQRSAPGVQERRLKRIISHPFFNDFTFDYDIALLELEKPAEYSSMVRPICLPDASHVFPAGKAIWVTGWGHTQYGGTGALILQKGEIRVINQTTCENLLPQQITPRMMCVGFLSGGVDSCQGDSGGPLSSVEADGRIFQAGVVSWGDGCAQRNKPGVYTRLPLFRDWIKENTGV
# Protocol: as §1
# KLK12 = biological target: T5, KLK12 (Homo sapiens, UniProt Q9UKR0); experiment: Inhibition of fibrinogen proteolysis by KLK12 (SDS-PAGE); assay type: biochemical; conditions: up to 10,000 nM inhibitor; 7 µM fibrinogen, 180 min
# T5 construct: purchased R&D Systems
# T5 sequence (Q9UKR0 18-248): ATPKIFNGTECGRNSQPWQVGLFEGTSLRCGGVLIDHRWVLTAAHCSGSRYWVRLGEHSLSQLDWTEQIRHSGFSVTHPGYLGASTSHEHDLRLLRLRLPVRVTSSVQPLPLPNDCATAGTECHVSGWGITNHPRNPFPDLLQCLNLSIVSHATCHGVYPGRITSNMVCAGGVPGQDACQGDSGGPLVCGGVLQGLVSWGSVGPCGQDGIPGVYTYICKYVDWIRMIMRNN
# Protocol: as §1
# KLK4 [5] = biological target: T1, KLK4
# Protocol: as §3
# α-chymotrypsin = biological target: T6, α-chymotrypsin (Bos taurus, UniProt P00766); experiment: Amidolytic inhibition assay of α-chymotrypsin; assay type: biochemical, bovine
# T6 construct: Bovine β-trypsin, bovine α-chymotrypsin and human thrombin were obtained from Sigma; purchased Sigma
# Protocol: as §1
# KLK14 [6] = biological target: T2, KLK14; experiment: Inhibition of fibrinogen proteolysis by KLK14 (SDS-PAGE); assay type: biochemical; conditions: up to 10,000 nM inhibitor; 7 µM fibrinogen, 90 min
# Protocol: as §1
# [7] = Stability of SFTI variants in culture with prostate cancer cells; assay type: in vitro ADME; conditions: human; 1 µM inhibitor in serum-containing media on LNCaP, 22Rv1 and PC3 monolayers; residual KLK4 inhibition; read-out: half-life in cell culture
# Protocol: (§2) The half-life in cell culture for SFTI-FCQR Asn14 and SFTI-FCQR Lys14 was determined using previously described methods. Briefly, monolayers of LNCaP, 22Rv1 and PC3 cells were established in RPMI 1640 medium supplemented with 10% foetal calf serum (HyClone), 100 U/ml penicillin (Invitrogen) and 100 µg/ml streptomycin (Invitrogen). Cells were treated ±1 µM inhibitor (SFTI-FCQR Asn14 or SFTI-FCQR Lys14) in fresh serum-containing media. Samples of media were taken at 24 hr intervals and boiled at 97°C for 15 min to denature serum protein. Residual inhibition by SFTI-FCQR variants was determined in competitive kinetic assays (as above), adding a volume of media to give 10 nM SFTI-FCQR Asn14 or 25 nM SFTI-FCQR Lys14 at 0 hr. Media without inhibitor was used to adjust for any endogenous media inhibition and data represent the mean ± SEM of three triplicate experiments.
# Thrombin [8] = biological target: T7, Thrombin (Homo sapiens, UniProt P00734); experiment: Amidolytic inhibition assay of thrombin; assay type: biochemical
# T7 construct: Bovine β-trypsin, bovine α-chymotrypsin and human thrombin were obtained from Sigma; purchased Sigma
# Protocol: as §1
# β-Trypsin = biological target: T8, β-Trypsin (Bos taurus, UniProt P00760); experiment: Amidolytic inhibition assay of β-trypsin; assay type: biochemical, bovine
# T8 construct: Bovine β-trypsin, bovine α-chymotrypsin and human thrombin were obtained from Sigma; purchased Sigma
# T8 sequence (P00760 24-246): T3 sequence (P00760 24-246)
# Protocol: as §1
# [9] = tested on: LNCaP, 22Rv1 and PC3 cells; parameters: method as in PMID 19549601; conditions: cited from earlier work
# [10] = tested on: LNCaP, 22Rv1 and PC3 cells; experiment: Stability of SFTI variants in culture with prostate cancer cells; assay type: in vitro ADME; conditions: 1 µM inhibitor in serum-containing media on prostate cancer cells; residual KLK4 inhibition
# Protocol: as §2
# KLK4 [11] = biological target: T1, KLK4; experiment: in vitro; conditions: recombinant KLK4 (isolated protease), pH 8
# Protocol: as §3
# Thrombin [12] = biological target: T7, Thrombin; parameters: method as in PMID 11549459; conditions: substrate N-t-Boc-LRR-AMC; cited from earlier work
# [13] = relative to SFTI-FCQR Asp14 (Table 2)
# T1 sequence (Q9Y5K2 31-254): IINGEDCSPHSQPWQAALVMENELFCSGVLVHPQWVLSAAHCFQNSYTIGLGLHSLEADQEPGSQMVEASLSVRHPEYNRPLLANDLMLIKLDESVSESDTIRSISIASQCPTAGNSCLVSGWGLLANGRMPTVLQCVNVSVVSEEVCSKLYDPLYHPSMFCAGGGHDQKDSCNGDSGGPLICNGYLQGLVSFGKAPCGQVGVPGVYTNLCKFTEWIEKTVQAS
compound,measurement,setting,value
CC[C@H](C)[C@@H]1NC(=O)[C@@H]2CCCN2C(=O)[C@@H]2CCCN2C(=O)[C@H]([C@@H](C)CC)NC(=O)[C@H](CO)NC(=O)[C@H](CCCNC(=N)N)NC(=O)[C@H](CCC(N)=O)NC(=O)[C@@H]2CSSC[C@H](NC1=O)C(=O)N[C@@H](Cc1ccccc1)C(=O)N1CCC[C@H]1C(=O)N[C@@H](C)C(=O)NCC(=O)N[C@@H](Cc1ccccc1)C(=O)N2 [SFTI-FCQR Ala14] (cyclo(GFCQRSIPPICFPA); disulfide 3-11),IC50,KLK4 [1],26.2 ± 0.85 nM
same,Ki,KLK4 [1],18.3 ± 3.36 nM
CC[C@H](C)[C@@H]1NC(=O)[C@@H]2CCCN2C(=O)[C@@H]2CCCN2C(=O)[C@H]([C@@H](C)CC)NC(=O)[C@H](CO)NC(=O)[C@H](CCCNC(=N)N)NC(=O)[C@H](CCC(N)=O)NC(=O)[C@@H]2CSSC[C@H](NC1=O)C(=O)N[C@@H](Cc1ccccc1)C(=O)N1CCC[C@H]1C(=O)N[C@@H](CC(N)=O)C(=O)NCC(=O)N[C@@H](Cc1ccccc1)C(=O)N2 [SFTI-FCQR Asn14] (cyclo(GFCQRSIPPICFPN); disulfide 3-11),lowest inhibitor concentration blocking KLK4 proteolysis of fibrinogen,KLK4 [2],62.5 nM
same,half-life,"[3]; BALB/cFoxn1/Arc, mouse, serum, IV and IP",25 to 28 min
same,level at time molar at 4 h,"[3]; BALB/cFoxn1/Arc, mouse, serum, IV and IP, irrespective of delivery route, read-out: residual inhibitor concentration in serum after 4 hours",10 ± 0.8 nM
same,serum levels after oral delivery,"[3]; oral, LC-MS",did not result in detectable levels of inhibitor in serum
same,relative increase in KLK14 inhibition compared to SFTI-FCQR Asp14,KLK14 [4]; [13],six-fold
same,IC50,"KLK14 [4]; substrate Ac-GSLR-pNA 100 µM, KLK14 2 nM",251 ± 21.9 nM
same,inhibition of trypsin fibrinogen proteolysis,trypsin,No inhibition
same,inhibition of matriptase,"Matriptase; at 10,000 nM inhibitor",no inhibition
same,IC50,"Matriptase; substrate Bz-FVRpNA 100 µM, matriptase 4 nM",> 10000 nM
same,inhibition of KLK12 fibrinogen proteolysis,KLK12,No inhibition
same,calculated second order rate constant (k off/K i),KLK4 [5]; calculated from k off and K i,8.03e+08 M⁻¹ s⁻¹
same,fold improvement in KLK4 inhibition compared to SFTI-FCQR Asp14,KLK4 [5]; [13],125 fold
same,IC50,"KLK4 [5]; substrate FVQRpNA 100 µM, KLK4 1.5 nM, 20 min preincubation (SFTI-FCQR Asn14: 0.15 nM KLK4 over 2 hr; Lys14 assayed immediately after addition)",0.0635 ± 0.0024 nM
same,inhibition of α-chymotrypsin,"α-chymotrypsin; at 10,000 nM inhibitor",no inhibition
same,IC50,"α-chymotrypsin; substrate WpNA 100 µM, α-chymotrypsin 25 nM",> 10000 nM
same,inhibition of KLK14 fibrinogen proteolysis,KLK14 [6],No inhibition
same,half-life at 1 µM,[7],55 to 70 h
same,Ki,KLK4 [1],0.0386 ± 0.006 nM
same,inhibition of thrombin,"Thrombin [8]; at 10,000 nM inhibitor",no inhibition
same,IC50,"Thrombin [8]; substrate Bz-FVRpNA 100 µM, thrombin 25 nM, 10 mM CaCl2",> 10000 nM
same,relative increase in trypsin inhibition compared to SFTI-FCQR Asp14,β-Trypsin; [13],two-fold
same,IC50,"β-Trypsin; substrate BAPNA 100 µM, trypsin 1 nM, 10 mM CaCl2",2180 ± 145 nM
CC[C@H](C)[C@@H]1NC(=O)[C@@H]2CCCN2C(=O)[C@@H]2CCCN2C(=O)[C@H]([C@@H](C)CC)NC(=O)[C@H](CO)NC(=O)[C@H](CCCNC(=N)N)NC(=O)[C@H](CCC(N)=O)NC(=O)[C@@H]2CSSC[C@H](NC1=O)C(=O)N[C@@H](Cc1ccccc1)C(=O)N1CCC[C@H]1C(=O)N[C@@H](CC(=O)O)C(=O)NCC(=O)N[C@@H](Cc1ccccc1)C(=O)N2 [SFTI-FCQR Asp14] (cyclo(GFCQRSIPPICFPD); disulfide 3-11),lowest inhibitor concentration blocking KLK4 proteolysis of fibrinogen,KLK4 [2],250 nM
same,stability in culture with prostate cancer cells,[9],highly resistant to breakdown
same,Ki,"KLK4 [5]; competitive inhibition model, various substrate concentrations, FVQRpNA",3.62 ± 0.26 nM
same,Ki,KLK4 [1],3.89 ± 0.4 nM
CC[C@H](C)[C@@H]1NC(=O)[C@@H]2CCCN2C(=O)[C@@H]2CCCN2C(=O)[C@H]([C@@H](C)CC)NC(=O)[C@H](CO)NC(=O)[C@H](CCCNC(=N)N)NC(=O)[C@H](CCC(N)=O)NC(=O)[C@@H]2CSSC[C@H](NC1=O)C(=O)N[C@@H](Cc1ccccc1)C(=O)N1CCC[C@H]1C(=O)NCC(=O)NCC(=O)N[C@@H](Cc1ccccc1)C(=O)N2 [SFTI-FCQR Gly14] (cyclo(GFCQRSIPPICFPG); disulfide 3-11),IC50,KLK4 [1],14.7 ± 1.09 nM
same,Ki,KLK4 [1],10.4 ± 2.87 nM
CC[C@H](C)[C@@H]1NC(=O)[C@@H]2CCCN2C(=O)[C@@H]2CCCN2C(=O)[C@H]([C@@H](C)CC)NC(=O)[C@H](CO)NC(=O)[C@H](CCCNC(=N)N)NC(=O)[C@H](CCC(N)=O)NC(=O)[C@@H]2CSSC[C@H](NC1=O)C(=O)N[C@@H](Cc1ccccc1)C(=O)N1CCC[C@H]1C(=O)N[C@@H](CCCCN)C(=O)NCC(=O)N[C@@H](Cc1ccccc1)C(=O)N2 [SFTI-FCQR Lys14] (cyclo(GFCQRSIPPICFPK); disulfide 3-11),initial activity lost within the first 24 hr in cell culture,[10],two-thirds
same,IC50,KLK4 [1],6.07 ± 0.13 nM
same,Ki,KLK4 [1],3.56 ± 0.27 nM
same,half-life,KLK4 [11],56.3 ± 6.2 min
CC[C@H](C)[C@@H]1NC(=O)[C@@H]2CCCN2C(=O)[C@@H]2CCCN2C(=O)[C@H]([C@@H](C)CC)NC(=O)[C@H](CO)NC(=O)[C@H](CCCNC(=N)N)NC(=O)[C@H](CCC(N)=O)NC(=O)[C@@H]2CSSC[C@H](NC1=O)C(=O)N[C@@H](Cc1ccccc1)C(=O)N1CCC[C@H]1C(=O)N[C@@H](CO)C(=O)NCC(=O)N[C@@H](Cc1ccccc1)C(=O)N2 [SFTI-FCQR Ser14] (cyclo(GFCQRSIPPICFPS); disulfide 3-11),IC50,KLK4 [1],29.2 ± 1.08 nM
same,Ki,KLK4 [1],21.2 ± 3.81 nM
SFTI-1: 1.4 kDa cyclic Bowman-Birk serine protease inhibitor isolated from sunflower (Helianthus annuus) seeds,Ki,Thrombin [12],5050 nM
